Data taken from the NIST ThermoML archive (doi:10.1021/je020159m).

Key:
[1] = 298.15 K; 101.33 kPa; Liquid; Vibrating tube method
[2] = excess molar enthalpy (molar enthalpy of mixing); xn = mol fraction of the nth substance listed; conditions: 298.15 K, 101.33 kPa, Liquid, Flow calorimetry

C1CCCCC1 [cyclohexane]
Conditions | mass density [kg/m3]
[1] | 773.92

CCCCCCCCCC [decane]
Conditions | mass density [kg/m3]
[1] | 726.37

CCCCCC [hexane]
Conditions | mass density [kg/m3]
[1] | 655.42

C1CCOC1 [tetrahydrofuran]
Conditions | mass density [kg/m3]
[1] | 882.09

C1CCOC1 [tetrahydrofuran] + C1CCCCC1
[2]
Conditions | excess molar enthalpy [kcal/mol]
x1 = 0.05 | 0.0385
x1 = 0.1 | 0.0709
x1 = 0.15 | 0.0988
x1 = 0.2001 | 0.121
x1 = 0.2499 | 0.1399
x1 = 0.2997 | 0.1529
x1 = 0.35 | 0.1636
x1 = 0.4003 | 0.1707
x1 = 0.4504 | 0.174
x1 = 0.4999 | 0.1745
x1 = 0.5498 | 0.1722
x1 = 0.6 | 0.1663
x1 = 0.65 | 0.1569
x1 = 0.7003 | 0.1444
x1 = 0.7498 | 0.1264
x1 = 0.8 | 0.108
x1 = 0.8505 | 0.0858
x1 = 0.9003 | 0.0599
x1 = 0.95 | 0.0309

C1CCOC1 [tetrahydrofuran] + CCCCCC
[2]
Conditions | excess molar enthalpy [kcal/mol]
x1 = 0.05 | 0.0362
x1 = 0.1 | 0.0678
x1 = 0.1499 | 0.0942
x1 = 0.2001 | 0.118
x1 = 0.25 | 0.1371
x1 = 0.2998 | 0.1538
x1 = 0.3503 | 0.1645
x1 = 0.4003 | 0.1733
x1 = 0.4504 | 0.1788
x1 = 0.5005 | 0.1794
x1 = 0.5508 | 0.1793
x1 = 0.6003 | 0.1743
x1 = 0.6503 | 0.1663
x1 = 0.7002 | 0.1544
x1 = 0.75 | 0.1389
x1 = 0.8015 | 0.119
x1 = 0.8501 | 0.0947
x1 = 0.8998 | 0.0693
x1 = 0.9499 | 0.0365

C1CCOC1 [tetrahydrofuran] + CCCCCCCCCC
[2]
Conditions | excess molar enthalpy [kcal/mol]
x1 = 0.05 | 0.0371
x1 = 0.0999 | 0.0724
x1 = 0.15 | 0.104
x1 = 0.2 | 0.1308
x1 = 0.2503 | 0.1543
x1 = 0.3 | 0.1748
x1 = 0.3498 | 0.1922
x1 = 0.4002 | 0.2066
x1 = 0.4509 | 0.2141
x1 = 0.4999 | 0.2201
x1 = 0.5499 | 0.2222
x1 = 0.6002 | 0.2203
x1 = 0.6501 | 0.2133
x1 = 0.7003 | 0.2016
x1 = 0.7502 | 0.185
x1 = 0.8003 | 0.1621
x1 = 0.8502 | 0.134
x1 = 0.9011 | 0.098
x1 = 0.95 | 0.0545
